# Source: ChEMBL document CHEMBL4017450, “Synthesis and carbonic anhydrase inhibition of a series of SLC-0111 analogs” (Bioorg Med Chem, 2017)
# pKi: −log10 of the molar value.
# Key:
# Carbonic anhydrase 9 = Carbonic anhydrase 9 (Homo sapiens, UniProt Q16790)
# Description: Inhibition of human recombinant carbonic anhydrase 9 preincubated for 15 mins prior to testing measured for 10 to 100 secs by phenol red-based stopped-flow CO2 hydration assay
# Carbonic anhydrase 12 = Carbonic anhydrase 12 (Homo sapiens, UniProt O43570); experiment: Inhibition of human recombinant carbonic anhydrase 12 preincubated for 15 mins prior to testing measured for 10 to 100 secs by phenol red-based stopped-flow CO2 hydration assay
# Carbonic anhydrase 2 = Carbonic anhydrase 2 (Homo sapiens, UniProt P00918); experiment: Inhibition of human recombinant carbonic anhydrase 2 preincubated for 15 mins prior to testing measured for 10 to 100 secs by phenol red-based stopped-flow CO2 hydration assay
# Chain of Carbonic anhydrase 12 (O43570 whole entry): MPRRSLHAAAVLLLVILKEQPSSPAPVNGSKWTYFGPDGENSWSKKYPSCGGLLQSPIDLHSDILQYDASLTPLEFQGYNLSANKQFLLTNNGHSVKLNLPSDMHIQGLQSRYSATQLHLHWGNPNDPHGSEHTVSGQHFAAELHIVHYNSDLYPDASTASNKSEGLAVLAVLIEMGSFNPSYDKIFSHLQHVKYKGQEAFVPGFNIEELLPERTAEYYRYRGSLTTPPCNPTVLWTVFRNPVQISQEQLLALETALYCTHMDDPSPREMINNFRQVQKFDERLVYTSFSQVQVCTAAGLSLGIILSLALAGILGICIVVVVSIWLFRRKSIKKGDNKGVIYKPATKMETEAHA
Compound,pKi (Carbonic anhydrase 9),pKi (Carbonic anhydrase 12),pKi (Carbonic anhydrase 2)
CC(=O)c1ccc(NC(=O)Nc2cccc(S(N)(=O)=O)c2)cc1,6.75,,
NS(=O)(=O)c1ccc(NC(=O)Nc2ccc(F)c(F)c2F)cc1,8.02,,
NS(=O)(=O)c1cccc(NC(=O)Nc2ccc(I)cc2)c1,6.94,,
CC(C)c1ccccc1NC(=O)Nc1cccc(S(N)(=O)=O)c1,6.46,,
NS(=O)(=O)c1ccc(NC(=O)Nc2cc(F)c(F)cc2F)cc1,8.12,,
NS(=O)(=O)c1cccc(NC(=O)Nc2cccc([N+](=O)[O-])c2)c1,6.81,,
NS(=O)(=O)c1cccc(NC(=O)Nc2ccc(F)cc2)c1,6.66,,
NS(=O)(=O)c1cccc(NC(=O)Nc2c(F)c(F)c(F)c(F)c2F)c1,6.79,,

# The next lines start with the values.
pKi (Carbonic anhydrase 9),pKi (Carbonic anhydrase 12),pKi (Carbonic anhydrase 2),Compound
8.11,,,NS(=O)(=O)c1ccc(NC(=O)Nc2ccccc2F)cc1
8.08,8.07,8.00,NS(=O)(=O)c1ccc(NC(=O)Nc2cccc(Cl)c2)cc1
8.13,,,NS(=O)(=O)c1ccc(NC(=O)Nc2cc(C(F)(F)F)ccc2F)cc1
8.29,,,NS(=O)(=O)c1ccc(NC(=O)Nc2ccc(Cl)cc2F)cc1
8.43,,,NS(=O)(=O)c1ccc(NC(=O)Nc2ccc(F)cc2F)cc1
8.09,,,NS(=O)(=O)c1ccc(NC(=O)Nc2cc([N+](=O)[O-])ccc2Cl)cc1
8.05,,,NS(=O)(=O)c1ccc(NC(=O)Nc2cc(Cl)ccc2Cl)cc1
